From patent US20070172424A1, “Enabling drug adherence through closed loop monitoring & communication” (priority 2006, published 2007)
Each block holds one molecule with its values, some of them ahead of it.

Key:
[1] = rats, within 24 hours of administration; cited from earlier work
[2] = in vivo
Description: The ability to detect the blood concentration of a pain reliever, such as liquid acetaminophen in the blood stream by measuring a tracer is described. The research is carried out by two researchers A & B.
10 ml liquid cough medicine (acetaminophen) 10 ml of 80 proof vodka
Researcher “A” combines the liquid cough medicine together with the vodka in a common flask. “A” stirs until mixed. “A” gives the mixture to the study subject to consume orally. Waits 30 minutes. Subject breathes into breathalyzer, “A” extracts blood sample. “A” repeats both measurements 8 more times at 30 minute intervals. “A” compares alcohol readings with a PK curve for alcohol; compares mass spectrometer analysis of blood for the presence of acetaminophen with a PK curve for acetaminophen.
The standard PK curves for alcohol & acetaminophen are provided to “B”, and he is told the must analyze one reading that was taken 2 hours after ingestion, and determine whether the alcohol reading was within the anticipated range of PK curve. He is given the alcohol breathalyzer result for 2 hours after ingestion.

Structure (SMILES): CC(C)=CCCC(C)=CC=O [Citral]
fraction of the given dose excreted in urine [1]: 50%

Structure (SMILES): CC(=O)Nc1ccc(O)cc1 [acetaminophen]
PK results versus standard PK curve for acetaminophen ([2]; po): fall within range of the standard PK curve

2-hour breathalyzer reading versus anticipated range of PK curve [2]: fall within statistical range
Structure (SMILES): CCO [alcohol]
PK results versus standard PK curve for alcohol ([2]; po): fall within range of the standard PK curve
